Reference: ChEMBL document CHEMBL4732105, “First orally bioavailable prodrug of proteolysis targeting chimera (PROTAC) degrades cyclin-dependent kinases 2/4/6 in vivo” (Eur J Med Chem, 2021)

What was measured:
[1] = system: B16-F10; assay: Induction of apoptosis in mouse B16F10 cells assessed as late apoptotic cells at 250 nM incubated for 48 hrs by Annexin V-FITC/PI staining based flow cytometry (reference value: 0.551%); assay type: functional
[2] = system: B16-F10; assay: Induction of apoptosis in mouse B16F10 cells incubated for 48 hrs by Annexin V-FITC/PI staining based flow cytometry; assay type: functional, cell-based; conditions: dose nM <=1000, time 48.0 hrs

In the case of `CN(C)C(=O)c1cc2cnc(Nc3ccc(C(=O)NCCCCCCNc4cccc5c4C(=O)N(C4CCC(=O)NC4=O)C5=O)cc3)nc2n1C1CCCC1` (configuration not stated), the Activity [1] is reported as 6.13% and the Activity [2] is reported as “Dose-dependent effect”.
